Data reported in patent US20250074911A1, “MACROCYCLIC BTK INHIBITORS” (Crossfire Oncology Holding B.V., priority 2021, published 2025).
“And” between values parts separate entries of the source, which are not always exact repeats. Equal values may be shown once.

What was measured:
[1] = molecular target: full-length wt-BTK enzyme (Homo sapiens (Human), UniProt Q06187); assay: Biochemical kinase assay wt-BTK (IMAP)
Method in brief: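 IMAP fluorescence polarization assay: 1.2 nM enzyme pre-incubated 1 h with compound at room temperature, then 50 nM fluorescein-labeled MBP-derived peptide and 4 μM ATP added. Reaction ran 2 h at room temperature in the dark before quenching with IMAP binding solution.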

[2] = molecular target: full-length BTK C481S enzyme (Homo sapiens (Human), UniProt Q06187, C481S); assay: Biochemical kinase assay BTK C481S (IMAP)
Sequence of full-length BTK C481S enzyme (Q06187 whole entry C481S): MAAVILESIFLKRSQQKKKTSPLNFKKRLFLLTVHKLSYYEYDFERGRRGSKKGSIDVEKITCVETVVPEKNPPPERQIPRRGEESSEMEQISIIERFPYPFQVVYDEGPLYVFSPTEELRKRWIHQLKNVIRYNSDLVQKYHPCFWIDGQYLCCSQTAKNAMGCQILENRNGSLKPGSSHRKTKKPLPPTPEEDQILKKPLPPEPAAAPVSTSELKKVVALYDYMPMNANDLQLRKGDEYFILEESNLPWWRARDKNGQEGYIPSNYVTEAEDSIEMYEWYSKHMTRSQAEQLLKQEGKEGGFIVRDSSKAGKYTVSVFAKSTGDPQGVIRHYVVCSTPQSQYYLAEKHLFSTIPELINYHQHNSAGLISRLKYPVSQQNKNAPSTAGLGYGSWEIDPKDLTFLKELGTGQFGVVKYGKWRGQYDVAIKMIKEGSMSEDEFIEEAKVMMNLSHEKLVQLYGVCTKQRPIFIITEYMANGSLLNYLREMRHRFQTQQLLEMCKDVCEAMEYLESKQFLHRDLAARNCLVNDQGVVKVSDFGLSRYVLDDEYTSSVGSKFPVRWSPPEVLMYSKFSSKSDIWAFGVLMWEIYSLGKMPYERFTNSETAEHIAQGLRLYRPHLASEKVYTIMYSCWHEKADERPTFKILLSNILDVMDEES
Method in brief: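 Full-length BTK C481S (1.2 nM) was pre-incubated with compound for 1 h at room temperature in the dark, then reacted with fluorescein-labelled MBP-derived peptide (50 nM) and ATP (7 μM) for 2 h. Reactions were quenched with IMAP binding solution, and IC50 values were derived from fluorescence polarization.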

[3] = tested on: wt-REC-1 mantle cell lymphoma cells; assay: Cell proliferation assay wt-REC-1 (ATPlite, 72 hours); format: cell-based; conditions: 72 h; read-out: IC50 wt-REC-1
Method in brief: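 Luminescent viability read over 72 h, start-of-incubation signal recorded separately to separate growth from cell death. Percentage growth referenced to compound-free 0.3% DMSO wells; IC50 from 4-parameter logistic fit.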

[4] = tested on: REC-1 T474I cell lines; assay: Cell proliferation assay REC-1 BTK T474I knock-in cells (ATPlite, 72 hours); format: cell-based; conditions: Homo sapiens, Rec1; 72 hours; read-out: IC50 REC-1 T474I
Method in brief: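 REC-1 cells carrying CRISPR knock-in mutant BTK, single-cell cloned and sequence-confirmed, were exposed to compound for 72 h and read by ATPlite luminescence. Percentage growth was calculated against the signal at the start of incubation and against untreated 0.3% DMSO wells as maximum growth.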

[5] = molecular target: wt-BTK (Homo sapiens (Human), UniProt Q06187); assay: Binding kinetics measurements (Surface Plasmon Resonance) on wt-BTK; conditions: for Kd: binding affinity by Surface Plasmon Resonance (SPR); for Tau (h) wt-BTK (Act): target residence time, SPR
Sequence of wt-BTK (Q06187 whole entry): as the sequence (Q06187 whole entry C481S) above, with S481C counted along it
Protocol: (§1) Binding kinetics measurements on wt-BTK, BTK […], BTK […], BTK […] and BTK […] (Surface Plasmon Resonance) Streptavidin-coated chips (Cat. No. BR100531), disposables and maintenance kits for Biacore were purchased from Cytiva (Eindhoven, The Netherlands). […] Remaining streptavidin was blocked with biocytin. Immobilization was performed at 4° C. Subsequent assay steps were conducted at 22° C. After changing buffer to Biacore buffer with 1% (v/v) dimethylsulfoxide (DMSO), a pre-run was performed for a period of at least 30 min at a flow rate of 30 μl/min to obtain a stable surface. The kinetic constants of the compounds were determined with single cycle kinetics with five consecutive injections with an increasing compound concentration with ranges of 3.16-316 nM. […] To circumvent problems of mass transport limitation, a flow rate of 30 μl/min was used. A blank run with the same conditions was performed before the compound was injected. The SPR sensorgrams were analyzed with Biacore Evaluation Software by using a method of double referencing. First the reference channel was subtracted from the channel containing immobilized protein. Subsequently, the reference curve obtained with buffer injections was subtracted. […] Compounds that bound according to an induced fit model were fitted with a two-state reaction model. The kinetic constants (ka, […], KD) of duplicates were geometrically averaged. […] Target residence for an induced fit model was calculated as described (Tummino and Copeland, 2008).

[6] = molecular target: BTK C481S (Homo sapiens (Human), UniProt Q06187, C481S); assay: Binding kinetics measurements (Surface Plasmon Resonance) on BTK C481S; conditions: for Tau (h) BTK C418S (Act): target residence time for BTK C481S, SPR
Sequence of BTK C481S (Q06187 whole entry C481S): as the sequence (Q06187 whole entry C481S) above
Protocol: as §1

[7] = molecular target: BTK T474I (Homo sapiens (Human), UniProt Q06187, T474I); assay: Binding kinetics measurements (Surface Plasmon Resonance) on BTK T474I; conditions: for Kd: binding affinity by Surface Plasmon Resonance (SPR); for Tau (h) BTK T474I (Act): target residence time, SPR
Sequence of BTK T474I (Q06187 whole entry T474I): as the sequence (Q06187 whole entry C481S) above, with T474I, S481C counted along it
Protocol: as §1

[8] = tested on: wt-TMD8 diffuse large B-cell lymphoma cells; assay: Cell proliferation assay wt-TMD8 (ATPlite, 120 hours); format: cell-based; conditions: B-cell; wt-TMD8 cells, 120 hours, ATPlite; read-out: IC50 wt-TMD8
Method in brief: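 wt-TMD8 DLBCL cells, 1600 per well in RPMI-1640 with 10% FBS, rested ≥5 h then exposed to compound for 120 h at 37° C, 5% CO2. Viability read by ATPlite luminescence; percentage growth calculated relative to start-of-incubation signal and untreated 0.3% DMSO maximum growth.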

Sequence of full-length wt-BTK enzyme (Q06187 whole entry): as the sequence (Q06187 whole entry C481S) above, with S481C counted along it

SMILES	IC50 [1] [nM]	IC50 [2] [nM]	IC50 [3] [nM]	IC50 [4] [nM]	Kd [5] [nM]	Kd ([6]; binding affinity by Surface Plasmon Resonance (SPR)) [nM]	Tau (h) BTK C418S (Act) [6] [h]	Kd [7]	IC50 [8] [nM]	Tau (h) wt-BTK (Act) [5] [h]	Tau (h) BTK T474I (Act) [7] [h]
Nc1ncc2c3c1c(-c1ccc(C(=O)Nc4cc(C(F)(F)F)ccn4)cc1)nn3[C@@H]1CCC[C@H](C1)NC(=O)CCCCCC2 [Example 114]	< 5	< 5	100 to 1000	500 to 10000	< 5	< 5	1.85	10 to 50 nM and < 5 nM	< 100	–	–
N#Cc1ccnc(NC(=O)c2ccc(-c3nn4c5c(cnc(N)c35)/C=C/CCN3CC[C@H]3C(=O)N[C@@H]3CC[C@@H]4C3)cc2)c1 [Example 186]	< 5	< 5	< 100	< 100	–	–	–	–	< 100	>24	0.93
Nc1ncc2c3c1c(-c1ccc(C(=O)Nc4cc(F)ccn4)cc1)nn3[C@@H]1CCC[C@H](C1)NC(=O)CCOC/C=C/2 [Example 189]	< 5	< 5	1000 to 10000	500 to 10000	< 5	–	–	–	< 100	4.17	1.56
Nc1ncc2c3c1c(-c1ccc(C(=O)Nc4cc(C(F)(F)F)ccn4)cc1)nn3[C@@H]1COC[C@H](C1)NC(=O)CCOC/C=C/2 [Example 192]	< 5	< 5	< 100	< 100	< 5	–	–	< 2 nM	< 100	3.61	1.40
Nc1ncc2c3c1c(-c1ccc(C(=O)Nc4cc(F)ccn4)cc1)nn3[C@@H]1CCC[C@H](C1)NC(=O)CCOCC/C=C/2 [Example 193]	< 5	< 5	< 100	< 100	< 5	–	–	< 2 nM	< 100	6.70	>24
COc1cc(-c2nn3c4c(cnc(N)c24)/C=C/CCOCCC(=O)N[C@@H]2CCC[C@@H]3C2)ccc1C(=O)Nc1cc(C(F)(F)F)ccn1 [Example 195]	< 5	< 5	< 100	< 100	< 5	–	–	–	< 100	3.73	0.73
Nc1ncc2n3c(nc(-c4ccc(C(=O)Nc5cc(C(F)(F)F)ccn5)cc4)c13)[C@@H]1CC[C@H](C1)NC(=O)CCOC/C=C/2 [Example 198]	< 5	< 5	< 100	–	–	–	18.16	–	< 100	4.28	1.44
N#Cc1ccnc(NC(=O)c2ccc(-c3nc4n5c(cnc(N)c35)/C=C/COCCC(=O)N[C@@H]3CC[C@@H]4C3)cc2)c1 [Example 199]	< 5	< 5	< 100	500 to 10000	–	–	1.28	–	< 100	1.69	0.54
N#Cc1ccnc(NC(=O)c2ccc(-c3nc4n5c(cnc(N)c35)/C=C/COCCC(=O)N[C@@H]3CCC[C@@H]4C3)cc2)c1 [Example 200]	< 5	< 5	< 100	500 to 10000	–	–	2.23	–	< 100	2.12	0.77
Nc1ncc2n3c(nc(-c4ccc(C(=O)Nc5cc(C(F)(F)F)ccn5)cc4)c13)[C@@H]1CC[C@H](C1)NC(=O)CCOCC/C=C/2 [Example 202]	< 5	< 5	< 100	< 100	–	–	3.15	–	< 100	2.20	2.16
Nc1ncc2n3c(nc(-c4ccc(C(=O)Nc5cc(C(F)(F)F)ccn5)cc4)c13)[C@@H]1CC[C@H](C1)NC(=O)CCCCC/C=C/2 [Example 203]	< 5	< 5	< 100	< 100	–	–	–	–	< 100	5.73	4.17
N#Cc1ccnc(NC(=O)c2ccc(-c3nc4n5c(cnc(N)c35)/C=C/CCOCCC(=O)N[C@@H]3CCC[C@@H]4C3)cc2)c1 [Example 205]	< 5	< 5	< 100	< 100	–	–	–	–	< 100	1.80	1.15
COc1ccc(F)cc1C(=O)NCc1ccc(-c2nc3n4c(cnc(N)c24)/C=C/CCOCCC(=O)N[C@@H]2CCC[C@@H]3C2)cc1 [Example 210]	< 5	< 5	< 100	< 100	< 5	–	–	< 2 nM	< 100	1.22	0.68
COc1ccc(F)cc1C(=O)NCc1ccc(-c2nc3n4c(cnc(N)c24)/C=C/COCCC(=O)N[C@@H]2CCC[C@@H]3C2)cc1 [Example 211]	< 5	< 5	< 100	500 to 10000	< 5	–	–	10 to 50 nM and < 5 nM	< 100	–	–
COc1ccc(F)cc1C(=O)NCc1ccc(-c2nc3n4c(cnc(N)c24)/C=C/CCOCCC(=O)N[C@@H]2CC[C@@H]3C2)cc1 [Example 213]	< 5	< 5	< 100	< 100	< 5	–	–	< 2 nM	< 100	2.29	0.93
Cc1ccnc(NC(=O)c2ccc(-c3nc4n5c(cnc(N)c35)/C=C/CCOCCC(=O)N[C@@H]3CC[C@@H]4C3)cc2)c1 [Example 215]	< 5	< 5	< 100	< 100	–	–	–	–	< 100	9.76	1.18
Cn1nc(NC(=O)c2ccc(-c3nc4n5c(cnc(N)c35)/C=C/CCOCCC(=O)N[C@@H]3CC[C@@H]4C3)cc2)cc1C(F)(F)F [Example 216]	< 5	< 5	< 100	< 100	–	–	–	–	< 100	4.79	1.28
COc1ccnc(NC(=O)c2ccc(-c3nc4n5c(cnc(N)c35)/C=C/CCOCCC(=O)N[C@@H]3CC[C@@H]4C3)cc2)c1 [Example 217]	< 5	< 5	< 100	< 100	–	–	–	–	< 100	2.78	0.70
Nc1ncc2n3c(nc(-c4ccc(C(=O)Nc5cc(C(F)F)ccn5)cc4)c13)[C@@H]1CC[C@H](C1)NC(=O)CCOCC/C=C/2 [Example 222]	< 5	< 5	< 100	100 to 500	–	–	–	–	< 100	5.31	0.60
Nc1ncc2n3c(nc(-c4ccc(C(=O)Nc5cc(OC(F)F)ccn5)cc4)c13)[C@@H]1CC[C@H](C1)NC(=O)CCOCC/C=C/2 [Example 224]	< 5	< 5	< 100	< 100	–	–	–	–	< 100	3.69	1.60
